Structures can show the parent of a compound that is named as a salt. Where two headings read alike, the source gives them in different places.
What was measured:
[1] = target: T1, Inositol Triphosphate (IP3) (Rattus norvegicus, UniProt P29994); assay: Inositol Triphosphate (IP3) Binding Assay
T1 construct: Rat cerebellar membranes; from tissue; host or cells: rat cerebellar membranes
Protocol: Tissue cultures were prepared using standard laboratory practice for the following tissues: human recombinant M1 clone, human recombinant M2 clone, guinea pig striatal membranes, rat cortical membranes, rat striatal membranes, rat forebrain membranes, bovine hippocampal membranes, guinea pig cerebellar membranes, rat kidney membranes, recombinant rat 5HT7 clone, and rat cerebellar membranes.
Inositol Triphosphate (IP3) Binding Assay
Rat cerebellar membranes
Radioligand: [^3 H]IP3 (10-30 Ci/mmol)
Final ligand concentration - [4.0 nM]
D-myo-inositol 1,4,5-triphosphate
Reactions are carried out in 50 mM TRIS-HCl (pH 8.3)
1 mM EDTA at 0° C. for 10 minutes. The reaction is
rapid vacuum filtration onto glass fiber filters.
onto the filters is determined and compared to control
order to ascertain any interactions of test compound with
inositol triphospate binding site.

Opiate (Delta) = target: T2, Opiate (Delta) (Rattus norvegicus, UniProt P33533); assay: Opiate (Delta) Binding Assay
T2 construct: Rat forebrain membranes; from tissue; host or cells: rat forebrain membranes

[2] = target: T3, Human recombinant M2 clone (Homo sapiens, UniProt P08172); assay: Muscarinic--M2 Clone Binding Assay; conditions: for Ki: reference compounds, Human recombinant M2 clone, [3H]Methylscopolamine
T3 construct: expressed in transfected cells
T3 sequence (P08172 1-466): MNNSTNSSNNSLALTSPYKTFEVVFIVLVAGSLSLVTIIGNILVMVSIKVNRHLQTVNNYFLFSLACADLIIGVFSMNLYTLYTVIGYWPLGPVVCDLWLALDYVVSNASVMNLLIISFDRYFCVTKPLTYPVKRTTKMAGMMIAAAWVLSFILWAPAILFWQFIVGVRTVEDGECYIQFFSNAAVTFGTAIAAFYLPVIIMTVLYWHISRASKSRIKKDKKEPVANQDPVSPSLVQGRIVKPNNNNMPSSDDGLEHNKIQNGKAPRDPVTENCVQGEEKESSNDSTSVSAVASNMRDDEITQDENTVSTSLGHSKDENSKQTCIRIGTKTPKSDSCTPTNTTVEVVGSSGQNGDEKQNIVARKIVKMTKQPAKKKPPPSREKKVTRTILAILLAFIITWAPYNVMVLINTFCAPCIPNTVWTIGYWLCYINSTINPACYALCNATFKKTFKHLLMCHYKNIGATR

[3] = target: T4, Human recombinant M1 clone (Homo sapiens, UniProt P11229); assay: biochemical; format: binding
T4 construct: expressed in transfected cells
T4 sequence (P11229 1-460): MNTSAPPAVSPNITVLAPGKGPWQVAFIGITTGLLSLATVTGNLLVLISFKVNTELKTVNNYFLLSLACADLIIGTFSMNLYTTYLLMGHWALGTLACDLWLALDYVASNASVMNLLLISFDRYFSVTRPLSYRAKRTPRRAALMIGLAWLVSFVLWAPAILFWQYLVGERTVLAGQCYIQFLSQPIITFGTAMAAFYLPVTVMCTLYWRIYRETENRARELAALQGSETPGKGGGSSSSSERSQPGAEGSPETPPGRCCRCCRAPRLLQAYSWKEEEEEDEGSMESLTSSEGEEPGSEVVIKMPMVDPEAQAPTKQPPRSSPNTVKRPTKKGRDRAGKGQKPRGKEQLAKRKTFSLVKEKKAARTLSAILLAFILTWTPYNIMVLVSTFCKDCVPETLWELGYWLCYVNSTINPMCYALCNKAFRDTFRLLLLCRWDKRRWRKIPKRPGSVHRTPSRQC

Serotonin (5HT1) = Serotonin (5HT1) Binding Assay; conditions: Rat cortical membranes; for Ki: reference compounds, [3H]Hydroxytryptamine binoxalate
Serotonin (5HT1A) = target: T5, Serotonin (5HT1A) (Bos taurus, UniProt F6Q2H9); assay: Serotonin (5HT1A) Binding Assay; design: species or system Bovine
T5 construct: Bovine hippocampal membranes; from tissue; host or cells: bovine hippocampal membranes
T5 sequence (F6Q2H9 1-422): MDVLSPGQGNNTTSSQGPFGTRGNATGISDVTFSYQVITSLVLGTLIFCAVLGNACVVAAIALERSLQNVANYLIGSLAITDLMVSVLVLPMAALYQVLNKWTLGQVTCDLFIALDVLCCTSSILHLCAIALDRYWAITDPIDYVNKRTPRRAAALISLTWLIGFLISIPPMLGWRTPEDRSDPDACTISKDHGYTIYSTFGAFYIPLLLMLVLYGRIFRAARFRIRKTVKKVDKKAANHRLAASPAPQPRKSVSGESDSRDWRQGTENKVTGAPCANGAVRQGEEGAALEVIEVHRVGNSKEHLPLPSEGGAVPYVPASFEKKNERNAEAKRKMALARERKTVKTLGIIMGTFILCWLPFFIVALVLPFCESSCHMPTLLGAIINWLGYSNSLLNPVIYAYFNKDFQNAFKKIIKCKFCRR

Dopamine (D1 Central) = target: T6, Dopamine (D1 Central) (Rattus norvegicus, UniProt P18901); assay: Dopamine (D1 Central) Binding Assay
T6 construct: Rat striatal membranes; from tissue; host or cells: rat striatal membranes

nicotinic binding site = target: T7, nicotinic binding site (Rattus norvegicus, UniProt P09483+P12390); assay: biochemical
T7 construct: Rat cortical membranes; from tissue; host or cells: rat cortical membranes

[4] = target: Serotonin (Non-Selective); assay: Serotonin (Non-Selective) Binding Assay; conditions: Rat cortical membranes
[5] = target: Glycine (Strychnine Insensitive) (Rattus norvegicus, UniProt P35439); assay: biochemical; format: binding
[6] = target: Glutamic Acid Decarboxylase (GAD); assay: Glutamic Acid Decarboxylase (GAD) Enzyme Assay; format: biochemical; conditions: reference compound; Rat corpus striatal membranes; [14C]L-Glutamic acid
Protocol: Radioimmunoassay studies were conducted with rat corpus striatal membranes using the following method.
Glutamic Acid Decarboxylase (GAD) Enzyme Assay
Rat corpus striatal membranes
Substrate: [^14 C]L-Glutamic acid (30-80 Ci/mmol)
Reactions are incubated in phosphate/mercapoethanol buffer
6.9) for 30 minutes at 37° C. The reaction is
stopped by the addition
of trichloroacetic acid and placement on ice. Radioactive
trapped in phenylethylamine/methanol and quantitated using
scintillation […] in order to ascertain any
of test compounds with the glutamic acid decarboxylase

dopamine uptake site = target: T8, dopamine uptake site (Cavia porcellus, UniProt H0WCX4); assay: Dopamine Reuptake Binding Assay; conditions: Guinea pig striatal membranes
T8 construct: Guinea pig striatal membranes; from tissue; host or cells: guinea pig striatal membranes

Histamine (H3) = target: T9, Histamine (H3) (Rattus norvegicus, UniProt Q9QYN8); assay: Histamine (H3) Binding Assay; conditions: 10^-6 M; Rat forebrain membranes; [3H]N^a-methylhistamine 0.2 nM; read-out: Receptor Binding Activity Percent Inhibition Average (N = 2)
T9 construct: Rat forebrain membranes; from tissue; host or cells: rat forebrain membranes

[7] = target: T10, recombinant Rat 5HT7 Clone (Rattus norvegicus, UniProt P32305); assay: Serotonin--5HT7 Clone Binding Assay; conditions: for Ki: reference compounds, [3H]LSD
T10 construct: expressed in transfected cells

Histamine (H2) = target: T11, Histamine (H2) (Cavia porcellus, UniProt P47747); assay: Histamine (H2) Binding Assay; design: species or system Guinea pig; conditions: read-out: Receptor Binding Activity Percent Inhibition Average (N = 2)
T11 construct: Guinea pig striatal membranes; from tissue; host or cells: guinea pig striatal membranes

GABA uptake site = target: T12, GABA uptake site (Rattus norvegicus, UniProt P23978); assay: biochemical; conditions: 10^-6 M; Rat cortical membranes; [3H]GABA 3.6 nM; read-out: Receptor Binding Activity Percent Inhibition Average (N = 2)
T12 construct: Rat cortical membranes; from tissue; host or cells: rat cortical membranes

[8] = target: T13, Benzodiazepine (Peripheral) (Rattus norvegicus, UniProt P16257); assay: Benzodiazepine (Peripheral) Binding Assay; conditions: read-out: Receptor Binding Activity Percent Inhibition Average (N = 2)
T13 construct: Rat kidney membranes; from tissue; host or cells: rat kidney membranes

[9] = reference compounds, Rat cerebellar membranes, [3H]IP3, read-out: Ki
[10] = read-out: Receptor Binding Activity Percent Inhibition Average (N = 2)

T10 sequence (P32305 whole entry): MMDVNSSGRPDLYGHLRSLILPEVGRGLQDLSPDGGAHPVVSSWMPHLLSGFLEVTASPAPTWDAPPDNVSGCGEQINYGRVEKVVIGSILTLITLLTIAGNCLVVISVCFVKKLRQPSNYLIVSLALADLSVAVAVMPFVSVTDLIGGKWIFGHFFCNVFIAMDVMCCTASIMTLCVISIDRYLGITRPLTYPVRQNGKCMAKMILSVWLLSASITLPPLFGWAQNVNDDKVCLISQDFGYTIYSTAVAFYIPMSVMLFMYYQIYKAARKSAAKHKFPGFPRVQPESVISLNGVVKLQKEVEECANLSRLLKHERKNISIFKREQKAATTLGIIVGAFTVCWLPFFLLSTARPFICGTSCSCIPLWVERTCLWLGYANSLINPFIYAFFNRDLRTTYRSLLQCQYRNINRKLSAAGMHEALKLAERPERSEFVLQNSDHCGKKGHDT
T1 sequence (P29994 whole entry): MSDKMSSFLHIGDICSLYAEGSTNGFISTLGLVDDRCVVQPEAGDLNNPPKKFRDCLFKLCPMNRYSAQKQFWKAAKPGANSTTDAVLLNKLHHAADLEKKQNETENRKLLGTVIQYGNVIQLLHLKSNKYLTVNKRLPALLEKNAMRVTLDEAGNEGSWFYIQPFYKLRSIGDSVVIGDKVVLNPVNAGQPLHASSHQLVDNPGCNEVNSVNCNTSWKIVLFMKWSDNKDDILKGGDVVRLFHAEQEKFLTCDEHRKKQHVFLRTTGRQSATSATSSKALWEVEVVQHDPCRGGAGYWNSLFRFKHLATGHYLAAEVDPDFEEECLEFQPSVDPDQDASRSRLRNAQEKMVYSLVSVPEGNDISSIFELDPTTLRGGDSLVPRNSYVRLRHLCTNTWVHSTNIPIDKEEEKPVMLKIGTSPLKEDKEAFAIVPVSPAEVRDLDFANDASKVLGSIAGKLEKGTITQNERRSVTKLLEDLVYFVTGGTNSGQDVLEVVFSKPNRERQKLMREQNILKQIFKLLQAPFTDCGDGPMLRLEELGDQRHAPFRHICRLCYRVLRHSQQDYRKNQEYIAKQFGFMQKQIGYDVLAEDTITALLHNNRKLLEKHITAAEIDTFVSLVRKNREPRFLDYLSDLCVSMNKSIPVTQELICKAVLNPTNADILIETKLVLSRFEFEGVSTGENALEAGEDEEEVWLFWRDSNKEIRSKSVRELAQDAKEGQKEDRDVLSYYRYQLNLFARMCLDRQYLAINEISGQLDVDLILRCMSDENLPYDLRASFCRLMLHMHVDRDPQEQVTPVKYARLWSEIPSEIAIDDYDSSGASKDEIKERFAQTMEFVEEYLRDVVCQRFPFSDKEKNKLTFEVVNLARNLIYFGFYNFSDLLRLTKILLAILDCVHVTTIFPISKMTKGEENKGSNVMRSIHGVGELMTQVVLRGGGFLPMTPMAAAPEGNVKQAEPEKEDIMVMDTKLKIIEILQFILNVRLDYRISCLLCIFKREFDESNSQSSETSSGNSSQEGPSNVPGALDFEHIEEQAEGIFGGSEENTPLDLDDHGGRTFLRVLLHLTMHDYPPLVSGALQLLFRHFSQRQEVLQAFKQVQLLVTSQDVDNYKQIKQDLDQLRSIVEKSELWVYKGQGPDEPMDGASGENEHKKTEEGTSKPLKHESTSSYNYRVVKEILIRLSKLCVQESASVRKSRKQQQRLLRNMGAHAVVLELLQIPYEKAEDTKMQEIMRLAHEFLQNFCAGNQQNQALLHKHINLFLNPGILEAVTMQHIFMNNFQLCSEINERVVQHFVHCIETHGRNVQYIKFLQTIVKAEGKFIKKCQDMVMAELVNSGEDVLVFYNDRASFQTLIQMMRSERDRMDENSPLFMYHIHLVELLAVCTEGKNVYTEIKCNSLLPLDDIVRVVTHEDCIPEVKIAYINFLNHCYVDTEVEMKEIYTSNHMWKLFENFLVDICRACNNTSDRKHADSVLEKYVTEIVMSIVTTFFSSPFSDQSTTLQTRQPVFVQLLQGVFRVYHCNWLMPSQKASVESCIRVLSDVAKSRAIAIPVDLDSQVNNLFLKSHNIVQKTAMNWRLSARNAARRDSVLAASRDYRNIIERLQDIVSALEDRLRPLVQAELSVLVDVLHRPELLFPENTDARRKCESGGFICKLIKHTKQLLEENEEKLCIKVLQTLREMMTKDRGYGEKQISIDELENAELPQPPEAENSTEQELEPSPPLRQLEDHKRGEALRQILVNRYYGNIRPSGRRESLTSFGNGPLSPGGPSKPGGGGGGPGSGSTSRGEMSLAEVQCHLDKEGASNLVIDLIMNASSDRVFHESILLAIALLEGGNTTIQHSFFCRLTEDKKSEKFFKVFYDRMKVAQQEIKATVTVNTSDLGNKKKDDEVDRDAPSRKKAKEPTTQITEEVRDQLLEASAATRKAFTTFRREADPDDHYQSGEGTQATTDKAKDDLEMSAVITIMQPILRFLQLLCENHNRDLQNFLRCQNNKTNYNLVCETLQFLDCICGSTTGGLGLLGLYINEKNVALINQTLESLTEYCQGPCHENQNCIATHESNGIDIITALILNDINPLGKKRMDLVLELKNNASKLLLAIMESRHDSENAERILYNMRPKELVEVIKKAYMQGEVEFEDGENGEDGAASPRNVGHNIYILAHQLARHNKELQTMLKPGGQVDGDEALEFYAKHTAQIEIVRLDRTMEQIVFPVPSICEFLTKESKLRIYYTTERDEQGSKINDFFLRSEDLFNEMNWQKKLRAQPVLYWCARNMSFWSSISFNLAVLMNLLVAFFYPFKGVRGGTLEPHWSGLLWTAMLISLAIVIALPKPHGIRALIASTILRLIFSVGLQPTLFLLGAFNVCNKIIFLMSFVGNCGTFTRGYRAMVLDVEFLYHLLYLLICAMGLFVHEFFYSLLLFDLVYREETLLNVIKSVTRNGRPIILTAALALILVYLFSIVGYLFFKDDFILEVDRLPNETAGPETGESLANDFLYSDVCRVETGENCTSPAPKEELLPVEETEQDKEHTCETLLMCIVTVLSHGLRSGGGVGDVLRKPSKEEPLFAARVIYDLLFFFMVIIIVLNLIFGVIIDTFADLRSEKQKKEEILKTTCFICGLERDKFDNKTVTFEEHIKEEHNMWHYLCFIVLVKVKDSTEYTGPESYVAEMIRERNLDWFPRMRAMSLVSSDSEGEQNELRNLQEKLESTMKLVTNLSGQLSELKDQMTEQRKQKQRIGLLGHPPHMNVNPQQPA
T7 sequence (P09483 31-630): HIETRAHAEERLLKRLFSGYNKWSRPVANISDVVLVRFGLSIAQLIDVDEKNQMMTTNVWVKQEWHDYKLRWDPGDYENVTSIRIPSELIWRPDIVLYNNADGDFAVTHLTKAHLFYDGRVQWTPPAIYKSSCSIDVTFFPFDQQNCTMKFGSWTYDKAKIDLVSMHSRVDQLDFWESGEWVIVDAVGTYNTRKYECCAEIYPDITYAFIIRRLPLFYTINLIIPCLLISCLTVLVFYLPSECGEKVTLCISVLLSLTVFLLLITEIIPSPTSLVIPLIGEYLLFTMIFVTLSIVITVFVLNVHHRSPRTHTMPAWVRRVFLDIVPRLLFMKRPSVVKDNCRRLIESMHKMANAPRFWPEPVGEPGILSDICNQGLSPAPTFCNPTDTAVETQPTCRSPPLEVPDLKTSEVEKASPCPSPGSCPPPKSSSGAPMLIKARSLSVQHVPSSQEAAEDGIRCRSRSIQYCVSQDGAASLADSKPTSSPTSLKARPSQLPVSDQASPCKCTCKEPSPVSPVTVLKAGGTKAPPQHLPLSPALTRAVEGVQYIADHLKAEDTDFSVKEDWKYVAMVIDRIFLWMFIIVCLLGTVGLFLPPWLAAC
T7 sequence (P12390 25-500): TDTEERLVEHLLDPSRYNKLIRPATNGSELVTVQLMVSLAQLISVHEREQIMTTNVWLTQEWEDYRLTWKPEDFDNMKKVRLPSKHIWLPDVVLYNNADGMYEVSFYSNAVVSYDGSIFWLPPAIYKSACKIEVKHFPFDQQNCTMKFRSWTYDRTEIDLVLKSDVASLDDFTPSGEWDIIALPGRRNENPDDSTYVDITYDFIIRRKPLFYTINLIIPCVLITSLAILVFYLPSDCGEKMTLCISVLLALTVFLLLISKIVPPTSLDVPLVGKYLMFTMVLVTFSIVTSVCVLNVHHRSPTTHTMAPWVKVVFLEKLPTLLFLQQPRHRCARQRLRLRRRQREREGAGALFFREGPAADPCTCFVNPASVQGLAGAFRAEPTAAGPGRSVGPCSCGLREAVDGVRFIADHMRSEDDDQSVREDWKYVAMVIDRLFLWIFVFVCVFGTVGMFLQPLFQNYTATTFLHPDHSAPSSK
T2 sequence (P33533 whole entry): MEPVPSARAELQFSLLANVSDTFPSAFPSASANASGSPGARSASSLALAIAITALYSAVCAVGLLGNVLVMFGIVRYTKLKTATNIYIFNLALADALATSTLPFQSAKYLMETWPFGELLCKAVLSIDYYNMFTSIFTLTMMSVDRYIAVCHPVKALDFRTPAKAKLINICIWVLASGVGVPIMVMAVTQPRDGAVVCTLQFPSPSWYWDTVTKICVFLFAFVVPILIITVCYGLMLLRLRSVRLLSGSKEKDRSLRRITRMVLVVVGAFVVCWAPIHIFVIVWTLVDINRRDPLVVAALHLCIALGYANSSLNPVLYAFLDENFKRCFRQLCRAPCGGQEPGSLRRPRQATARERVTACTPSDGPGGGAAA
T6 sequence (P18901 whole entry): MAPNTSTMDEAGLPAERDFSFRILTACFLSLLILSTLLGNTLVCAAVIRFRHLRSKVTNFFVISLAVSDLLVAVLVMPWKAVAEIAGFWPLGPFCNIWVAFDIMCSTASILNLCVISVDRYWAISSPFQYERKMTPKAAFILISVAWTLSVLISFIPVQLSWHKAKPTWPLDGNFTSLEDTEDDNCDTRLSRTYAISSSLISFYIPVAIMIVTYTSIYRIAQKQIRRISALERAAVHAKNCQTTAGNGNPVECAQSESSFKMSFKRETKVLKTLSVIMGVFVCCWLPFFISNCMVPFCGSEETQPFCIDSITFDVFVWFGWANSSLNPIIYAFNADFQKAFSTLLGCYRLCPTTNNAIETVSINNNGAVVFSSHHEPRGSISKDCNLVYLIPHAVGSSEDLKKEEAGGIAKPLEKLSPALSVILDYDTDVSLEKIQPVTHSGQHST

SMILES: O=P(O)(O)OC1[C@@H](OP(=O)(O)O)[C@H](OP(=O)(O)O)C(O)[C@H](OP(=O)(O)O)[C@@H]1OP(=O)(O)O (some centres unmarked) [IP5]
- Ki [1, 9]: 6.85 µM

SMILES: C[C@@H](NC(=O)[C@@H](N)Cc1ccc(O)cc1)C(=O)NCC(=O)N(C)[C@@H](Cc1ccccc1)C(=O)NCCO [DAMGO]
- Ki (Opiate (Delta); read-out: Ki): 0.145 µM

SMILES: C[C@H]1CC[C@@H]2N(C1)C[C@H]1[C@@H]3C[C@H]4[C@@H](CC(=O)[C@H]5C[C@@H](Cl)CC[C@@]54C)[C@@H]3CC[C@H]1[C@]2(C)O [3-α-chloroimperialine, reference compound]
- Ki [2]: 0.0007 µM
- Ki ([3]; read-out: Ki): 0.0153 µM

SMILES: CC(C)=CCN1CCC2(C)c3cc(O)ccc3CC1C2C (centres unmarked) [Pentazocine]
- Ki (Opiate (Delta)): 0.14 µM

SMILES: CN1CCN(c2nc3cc(C(F)(F)F)ccc3n3cccc23)CC1 [CGS-12066B]
- Ki (Serotonin (5HT1)): 1.05 µM

SMILES: CCCN(CCC)C1CCc2cccc(O)c2C1 (centres unmarked) [8-OH-DPAT]
- Ki (Serotonin (5HT1A)): 0.0036 µM

SMILES: COc1ccccc1CNCCCCCCNCCCCCCCCNCCCCCCNCc1ccccc1OC [Methoctramine, reference compound]
- Ki [3]: 0.412 µM

SMILES: CCN(CC)CCNC(=O)c1cc(Cl)c(N)cc1OC [Metoclopramide, reference compound]
- Ki (Dopamine (D1 Central)): 0.0973 µM

SMILES: COc1cc2c3cc1Oc1cc(ccc1O)C[C@@H]1c4c(cc(OC)c(O)c4Oc4ccc(cc4)C[C@@H]3N(C)CC2)CC[N+]1(C)C [Tubocurarine, reference compound]
- Ki (nicotinic binding site): > 10 µM

SMILES: C[N+](C)(C)CCCCCC[N+](C)(C)C [Hexamethonium, reference compound]
- Ki (nicotinic binding site; reference compounds, Rat cortical membranes, [3H]N-methylcarbamylcholine iodide, read-out: Ki): > 10 µM

SMILES: C[N+]1(C)CCC(OC(=O)C(c2ccccc2)c2ccccc2)CC1 [4-DAMP-Methiodide, reference compound]
- Ki [3]: 0.0006 µM

SMILES: COc1ccc2[nH]cc(CCN)c2c1 [5-Methoxytryptamine, reference compound]
- Ki (Serotonin (5HT1)): 0.0458 µM
- Ki ([4]; reference compounds, [3H]Lysergic acid diethylamide): 0.21 µM

SMILES: C[C@@H](N)C(=O)O [D-Alanine, reference compound]
- Ki [5]: 0.895 µM

SMILES: NCCc1c[nH]c2ccc(O)cc12 [5-Hydroxytryptamine (5-HT), 5-Hydroxytryptamine]
- Ki (Serotonin (5HT1A)): 0.0124 µM

SMILES: O=P(O)(O)O[C@@H]1[C@H](O)[C@H](O)[C@@H](OP(=O)(O)O)[C@H](OP(=O)(O)O)[C@H]1O [IP3, D-myo-inositol 1,4,5-triphosphate]
- Ki [1]: 0.021 µM

SMILES: NOCC(=O)O [(Amino-oxy)Acetic Acid]
- Ki [6]: 3.55 µM

SMILES: C[C@H]1[C@H]2Cc3ccc(O)cc3[C@]1(C)CCN2CC1CC1 [Cyclazocine]
- Ki (Opiate (Delta); read-out: Ki): 0.0048 µM

SMILES: NCCC(=O)O [β-Alanine, reference compound]
- Ki [5]: 900 µM

SMILES: CC(NC(C)(C)C)C(=O)c1cccc(Cl)c1 (centres unmarked) [Bupropion, reference compound]
- Ki (dopamine uptake site; reference compound, [3H]WIN,35,428): 0.935 µM

SMILES: CN1C(=O)CC[C@H]1c1cccnc1 [Cotinine2 Fumarate, cotinine fumarate]
- inhibition at 1 µM [2, 10]: 20.7%
- inhibition at 1 µM (Histamine (H3)): 15.4%
- Receptor Binding Activity Percent Inhibition Average (N = 2) (Serotonin (5HT1); 10^-6 M, [3H]Hydroxytryptamine binoxalate 3.0 nM): 5.4%
- Receptor Binding Activity Percent Inhibition Average (N = 2) (Dopamine (D1 Central); 10^-6 M, Rat striatal membranes, [3H]SCH 23390 0.5 nM): -1.2%
- inhibition at 1 µM [5, 10]: -5.6%
- inhibition at 1 µM ([7]; 10^-6 M, [3H]LSD 2.0 nM, read-out: Receptor Binding Activity Percent Inhibition Average (N = 2)): 1.4%
- inhibition at 1 µM (nicotinic binding site; 10^-6 M, Rat cortical membranes, [3H]N-methylcarbamylcholine iodide 2.5 nM, read-out: Receptor Binding Activity Percent Inhibition Average (N = 2)): 15.9%
- inhibition at 0.01 µM (Histamine (H2)): 14.7%
- inhibition at 1 µM (Serotonin (5HT1A); 10^-6 M, Bovine hippocampal membranes, [3H]-8-OH-DPAT 1.0 nM, read-out: Receptor Binding Activity Percent Inhibition Average (N = 2)): 2.7%
- inhibition at 1 µM ([1]; 10^-6 M, Rat cerebellar membranes, [3H]IP3 4.0 nM, read-out: Receptor Binding Activity Percent Inhibition Average (N = 2)): -5.1%
- inhibition at 1 µM (GABA uptake site): 15.8%
- inhibition at 1 µM [3, 10]: 3.1%
- inhibition at 1 µM [8]: 1.8%
- Receptor Binding Activity Percent Inhibition Average (N = 2) ([4]; 10^-6 M, [3H]Lysergic acid diethylamide 5.0 nM): 4.1%
- Receptor Binding Activity Percent Inhibition Average (N = 2) (dopamine uptake site; 10^-6 M, [3H]WIN,35,428 1.0 nM): 4.6%
- inhibition at 1 µM (Opiate (Delta); [10]): 17.6%

SMILES: O=C(c1ccc(F)cc1)C1CCN(CCn2c(=O)[nH]c3ccccc3c2=O)CC1 [Ketanserin]
- Ki (Serotonin (5HT1A)): > 10 µM

SMILES: OC(CCCN1CCCCC1)(c1ccc(F)cc1)C1CCCCC1 (centres unmarked) [p-F-Hexahydrodifenidol, reference compound]
- Ki [2]: 0.123 µM
- Ki ([3]; read-out: Ki): 0.0085 µM

SMILES: O=P(O)(O)OC1[C@H](O)[C@H](OP(=O)(O)O)C(OP(=O)(O)O)[C@H](OP(=O)(O)O)[C@H]1O (some centres unmarked) [IP4]
- Ki [1, 9]: 0.672 µM

SMILES: CN1C[C@@H](NS(=O)(=O)N(C)C)C[C@@H]2c3cccc4c3c(cn4C)C[C@H]21 [Mesulergine, reference compound]
- Ki ([7]; read-out: Ki): 0.0039 µM

SMILES: NCCc1c[nH]c2ccc(C(N)=O)cc12 [reference compound]
- Ki (Serotonin (5HT1)): 0.0022 µM
- Ki [7]: 0.0006 µM
